Tests used:
Test in all cases: Post-emergence application in field trials, herbicidal activity (damage scale 0 to 100%)
Format in all cases: in vivo
[1] = test system: Setaria verticillata (SETVE)
How it was run: (§1)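 Field sites with natural or seeded weeds were sprayed post-emergence via flat fan nozzles in 200 l/ha water plus 0.25 v/v % MSO adjuvant, solo or mixed with pyroxasulfone and other partners. Damage was scored 0–100% versus untreated plants at indicated DAT. Colby expected values were used to judge synergy.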

Zea mays (ZEAMX) = test system: Zea mays (ZEAMX)
How it was run: as §1

[2] = test system: Amaranthus retroflexus (AMARE); conditions: stage 31-49, height 10-12 cm
How it was run: as §1

Cn1nc(C(F)(F)F)c(CS(=O)(=O)C2=NOC(C)(C)C2)c1OC(F)F [B, pyroxasulfone]
% Herbicidal activity ([1]; 7 DAT, stage 21-23, height 8-16 cm, g ai/ha A-1 18, B 70, C-8 840): 0%
% Herbicidal activity ([1]; 7 DAT, stage 21-23, height 8-16 cm, g ai/ha A-1 18, B 70, C-12 252): 0%
% Herbicidal activity ([1]; 7 DAT, stage 21-23, height 8-16 cm, g ai/ha A-1 18, B 90, C-4 12.5): 0%
% Herbicidal activity ([1]; 7 DAT, stage 21-23, height 8-16 cm, g ai/ha A-1 18, B 90, C-8 840): 0%
% Herbicidal activity ([1]; 7 DAT, stage 21-23, height 8-16 cm, g ai/ha A-1 18, B 90, C-12 252): 0%
% Herbicidal activity ([1]; 21 DAT, stage 21-23, height 8-16 cm, g ai/ha A-1 18, B 90, C-12 252): 0%
% Herbicidal activity ([1]; 42 DAT, stage 21-23, height 8-16 cm, g ai/ha A-1 12.5, B 70): 0%
% Herbicidal activity ([1]; 42 DAT, stage 21-23, height 8-16 cm, g ai/ha A-1 12.5, B 70, C-12 252): 0%
% Herbicidal activity ([1]; 42 DAT, stage 21-23, height 8-16 cm, g ai/ha A-1 18, B 70): 0%
% Herbicidal activity ([1]; 42 DAT, stage 21-23, height 8-16 cm, g ai/ha A-1 18, B 90, C-12 252): 0%
% Herbicidal activity ([1]; SETVE, growth stage 21-23, height 8-16 cm, B 70 g ai/ha, 7 DAT, Table 4.1): 0%
% Herbicidal activity ([1]; SETVE, growth stage 21-23, height 8-16 cm, B 70 g ai/ha, 21 DAT, Table 4.3): 0%
% Herbicidal activity ([1]; SETVE, growth stage 21-23, height 8-16 cm, B 90 g ai/ha, 7 DAT, Table 4.1): 0%
% Herbicidal activity ([1]; SETVE, growth stage 21-23, height 8-16 cm, B 90 g ai/ha, 21 DAT, Table 4.3): 0%
% Herbicidal activity ([1]; Table 8.1, 7 DAT, stage 21-23, height 8-16 cm, g ai/ha A-1 18, B 70, C-12 1066): 0%
% Herbicidal activity ([1]; Table 8.2, 21 DAT, stage 21-23, height 8-16 cm, g ai/ha A-1 12.5, B 70, C-12 1066): 0%
% Herbicidal activity ([1]; Table 8.4, 42 DAT, stage 21-23, height 8-16 cm, g ai/ha A-1 12.5, B 70, C-12 1066): 0%
% Herbicidal activity (Zea mays (ZEAMX); 7 DAT, stage 15-16, height 27-33 cm, g ai/ha A-1 12.5, B 70, C-12 252): 0%
% Herbicidal activity (Zea mays (ZEAMX); 7 DAT, stage 15-16, height 27-33 cm, g ai/ha A-1 18, B 70, C-12 252): 0%
% Herbicidal activity (Zea mays (ZEAMX); 7 DAT, stage 15-16, height 27-33 cm, g ai/ha A-1 18, B 90, C-4 12.5): 0%
% Herbicidal activity (Zea mays (ZEAMX); 7 DAT, stage 15-16, height 27-33 cm, g ai/ha A-1 18, B 90, C-12 252): 0%
% Herbicidal activity (Zea mays (ZEAMX); 21 DAT, stage 15-16, height 27-33 cm, g ai/ha A-1 12.5, B 70, C-12 252): 0%
% Herbicidal activity (Zea mays (ZEAMX); 21 DAT, stage 15-16, height 27-33 cm, g ai/ha A-1 18, B 70, C-12 252): 0%
% Herbicidal activity (Zea mays (ZEAMX); 21 DAT, stage 15-16, height 27-33 cm, g ai/ha A-1 18, B 90, C-12 252): 0%
% Herbicidal activity (Zea mays (ZEAMX); 42 DAT, stage 15-16, height 27-33 cm, g ai/ha A-1 12.5, B 70, C-12 252): 0%
% Herbicidal activity (Zea mays (ZEAMX); 42 DAT, stage 15-16, height 27-33 cm, g ai/ha A-1 18, B 70, C-12 252): 0%
% Herbicidal activity (Zea mays (ZEAMX); 42 DAT, stage 15-16, height 27-33 cm, g ai/ha A-1 18, B 90, C-12 252): 0%
% Herbicidal activity (Zea mays (ZEAMX); Table 8.1, 7 DAT, stage 15-16, height 50-60 cm, g ai/ha A-1 18, B 70, C-12 1066): 5%
% Herbicidal activity (Zea mays (ZEAMX); Table 8.1, 7 DAT, stage 15-16, height 50-60 cm, g ai/ha A-1 18, B 90, C-12 1066): 5%
% Herbicidal activity (Zea mays (ZEAMX); ZEAMX, growth stage 15-16, height 40-60 cm, B 70 g ai/ha, 7 DAT, Table 4.2): 5%
% Herbicidal activity (Zea mays (ZEAMX); ZEAMX, growth stage 15-16, height 40-60 cm, B 70 g ai/ha, 21 DAT, Table 4.4): 3%
% Herbicidal activity (Zea mays (ZEAMX); ZEAMX, growth stage 15-16, height 40-60 cm, B 90 g ai/ha, 7 DAT, Table 4.2): 5%
% Herbicidal activity ([2]; 7 DAT, g ai/ha A-1 12.5, B 70, C-4 12.5): 0%
% Herbicidal activity ([2]; 21 DAT, g ai/ha A-1 18, B 70, C-12 252): 0%
% Herbicidal activity ([2]; 21 DAT, g ai/ha A-1 18, B 90, C-12 252): 0%
% Herbicidal activity ([2]; 42 DAT, g ai/ha A-1 12.5, B 70, C-4 12.5): 0%
% Herbicidal activity ([2]; 42 DAT, g ai/ha A-1 18, B 70): 0%
% Herbicidal activity ([2]; 42 DAT, g ai/ha A-1 18, B 70, C-4 12.5): 0%
% Herbicidal activity ([2]; 42 DAT, g ai/ha A-1 18, B 90, C-4 12.5): 0%
